Results reported in article PMC4604124, “In Vitro Characterization of the Pharmacological Properties of the Anti-Cancer Chelator, Bp4eT, and Its Phase I Metabolites” (PLoS ONE, 2015).
“And” between values parts separate entries of the source, which are not always exact repeats. Equal values may be shown once.

How the values were obtained:
LC3-II = test: Western blot and densitometry of LC3-I/II (autophagy); format: cell-based, human; details: for LC3-II levels compared to the control: agent alone; for densitometry WB, relative to NT = 1: single blot
Source text: Established protocols were used to prepare cell lysates and perform immunoblot analysis. Primary antibodies used include: rabbit LC3 (Cat. #: MBPM036; 1:2,000) from Abacus (Brisbane, Australia) and mouse β-actin (Cat. #: A1978, 1:10,000) from Sigma-Aldrich. The following secondary antibodies were utilized: horseradish peroxidase (HRP)-conjugated anti-rabbit (Cat. #: A6154, […]) and anti-mouse (Cat. #: A4416, 1:10,000) antibodies from Sigma-Aldrich. To ensure equal loading of proteins, membranes were probed for β-actin.

[1] = Ascorbate oxidation assay (redox activity of iron complexes); format: biochemical; details: for %Fe 30min: ascorbate oxidation as % of the Fe control (Fe 100%): IBE 0.1, 30 min;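 for %Fe 30min (ascorbate oxidation, Fe 100%), průměr: IBE 3 means excess free chelator over iron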;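 for %Fe 30min (ascorbate oxidation, Fe 100%): IBE 3 means excess free chelator over iron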;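 for %Fe 30min: ascorbate oxidation as % of the Fe control (Fe 100%): IBE 0.1 means iron-binding equivalents with iron in excess over chelator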;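 for Change of absorbance, odečet 0 (time 0 subtracted), čas 10, průměr: IBE 3 means excess free chelator over 10 µM FeCl3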;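 for Change of absorbance, odečet 0 (time 0 subtracted), čas 10: IBE 3 means excess free chelator over 10 µM FeCl3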
Description: The ascorbate oxidation assay was used to assess the redox activity of the iron complexes of the chelators using an established protocol. In brief, 100 μM ascorbic acid was prepared immediately prior to the experiment and incubated either alone or in the presence of 10 μM FeCl3 in a 50-fold molar excess (500 μM) of citrate and the chelators. Chelators were assayed at iron-binding equivalents (IBE) of 0.1 (excess of iron), 1 (fully coordinated iron—chelator complexes) and 3 (excess of free chelator). […] The decrease of absorbance between the two time points was calculated and expressed as a percentage of control without the chelator.

[2] = 72 h/37°C, MCF-7, Bp4eT 10 and 100 nM, Dp44mT 100 nM, Baf A1 100 nM
[3] = Supplementary Fig 2, Baf+, 10nM
[4] = Supplementary Fig 2, Baf+, 5uM (5M [sic] for Bp4eT)
[5] = sheet IBE 1, time 10, replicates
[6] = sheet IBE 1, time 20, replicates
[7] = sheet IBE 1, time 30, replicates
[8] = Supplementary Fig 2, Baf+ NT (Baf alone)

## CO/C1=C\C(C)=C\[C@@H](C)[C@@H](O)[C@@H](C)C/C(C)=C/C=C/[C@H](OC)[C@@H]([C@@H](C)[C@@H](O)[C@H](C)[C@@]2(O)C[C@@H](O)[C@H](C)[C@@H](C(C)C)O2)OC1=O [Baf A1, Bafilomycin A1, reference compound]
LC3-II; [2]
  LC3-II levels compared to the control: marked and significant (p < 0.001) increase

## CN(C)C(=S)NN=C(c1ccccn1)c1ccccn1 [Dp44mT, di-2-pyridylketone 4,4-dimethyl-3-thiosemicarbazone, reference compound]
LC3-II; 24 h/37°C, MCF-7, agent 5 μM, Baf A1 100 nM
  LC3-II with Baf A1 relative to Baf A1 and control: significant (p < 0.05) increase
LC3-II; 24 h/37°C, MCF-7, agent 10 and 100 nM, Baf A1 100 nM
  LC3II expression with Baf A1 relative to Baf A1 and control: did not lead to a significant (p > 0.05) increase
LC3-II; 72 h/37°C, MCF-7, Baf A1 100 nM, Bp4eT 10 and 100 nM, Dp44mT 100 nM
  LC3-II levels upon co-incubation with Baf A1, compared to Baf A1 alone: significant (p < 0.001–0.05) suppression
LC3-II; Fig 7E, 100nM
  densitometry WB, relative to NT = 1, Average: 4.573
LC3-II; Supplementary Fig 2, 10nM
  densitometry WB, relative to NT = 1, Average: 1.013
LC3-II; Supplementary Fig 2, 100nM
  densitometry WB, relative to NT = 1, Average: 0.7153
LC3-II; Supplementary Fig 2, 5uM (5M [sic] for Bp4eT)
  densitometry WB, relative to NT = 1, Average: 2.9502
LC3-II; [3]
  densitometry WB, relative to NT = 1, Average: 97.312
  densitometry WB, relative to NT = 1: 76.4364 and 79.3437 and 136.156
LC3-II; Supplementary Fig 2, Baf+, 100nM
  densitometry WB, relative to NT = 1, Average: 73.568
LC3-II; [4]
  densitometry WB, relative to NT = 1, Average: 249.127
  densitometry WB, relative to NT = 1: 275.571 and 204.438 and 267.371
LC3-II; [2]
  LC3-II levels compared to the control: slight, but significant (p < 0.05) increase

## O=C(O)CN(CCN(CC(=O)O)CC(=O)O)CC(=O)O [EDTA, reference compound]
[1]; IBE 0.1
  Ascorbate oxidation, % of the control: 161%
[1]; mean (průměr)
  %Fe 30min: ascorbate oxidation as % of the Fe control (Fe 100%): 160.9%
[1]; single wells
  %Fe 30min: ascorbate oxidation as % of the Fe control (Fe 100%): 159.4% and 155.2% and 146.4% and 180.8% and 176.8% and 168.8%
[1]; IBE 0.1, time 10, mean (průměr)
  Change of absorbance after subtraction of time 0 (odečet 0): -0.05129
[1]; IBE 0.1, time 20, mean (průměr)
  Change of absorbance after subtraction of time 0 (odečet 0): -0.1014
[1]; IBE 0.1, time 30, mean (průměr)
  Change of absorbance after subtraction of time 0 (odečet 0): -0.1524
[1]; IBE 0.1, čas 0 (time 0), mean (průměr)
  Absorbance (ascorbate, λ = 265 nm): 0.8103
[1]; IBE 0.1, čas 0 (time 0), single wells
  Absorbance (ascorbate, λ = 265 nm): 0.8054 and 0.8016 and 0.8149 and 0.8186 and 0.808 and 0.8024
[1]; IBE 0.1, čas 10 (time 10), mean (průměr)
  Absorbance (ascorbate, λ = 265 nm): 0.759
[1]; IBE 0.1, čas 10 (time 10), single wells
  Absorbance (ascorbate, λ = 265 nm): 0.7602 and 0.7682 and 0.7617 and 0.7478 and 0.7502 and 0.7523
[1]; IBE 0.1, čas 20 (time 20), mean (průměr)
  Absorbance (ascorbate, λ = 265 nm): 0.7088
[1]; IBE 0.1, čas 20 (time 20), single wells
  Absorbance (ascorbate, λ = 265 nm): 0.708 and 0.7209 and 0.713 and 0.6947 and 0.6986 and 0.7025
[1]; IBE 0.1, čas 30 (time 30), mean (průměr)
  Absorbance (ascorbate, λ = 265 nm): 0.6579
[1]; IBE 0.1, čas 30 (time 30), single wells
  Absorbance (ascorbate, λ = 265 nm): 0.6595 and 0.6673 and 0.6654 and 0.6401 and 0.6465 and 0.65
[1]; IBE 1
  Ascorbate oxidation, % of the control: 417%
[1]; IBE 3
  Ascorbate oxidation, % of the control: 427%
[1]; sheet IBE 1, 30min, Fe 100%, mean
  %Fe 30min (ascorbate oxidation, Fe = 100%), průměr (mean): 416.7%
[1]; sheet IBE 1, 30min, Fe 100%, replicates
  %Fe 30min (ascorbate oxidation, Fe = 100%), single replicates: 441% and 427.1% and 415.6% and 401.4% and 393.2% and 387.9%
[1]; sheet IBE 1, time 0, mean of 9 readings
  raw reading at čas 0 (time 0), průměr (mean): 0.6818
[1]; sheet IBE 1, time 0, replicates of 2014-03-24 (two runs) and 2014-03-25
  raw reading at čas 0 (time 0), single replicates: 0.698 and 0.6881 and 0.6774 and 0.6781 and 0.6723 and 0.6948
[1]; sheet IBE 1, time 10, mean
  odečet 0 (reading minus time 0 reading) at čas 10, průměr (mean): -0.1456
[1]; sheet IBE 1, time 10, mean of 9 readings
  raw reading at čas 10 (time 10), průměr (mean): 0.5362
[1]; [5]
  odečet 0 (reading minus time 0 reading) at čas 10, single replicates: -0.1492 and -0.1466 and -0.1396 and -0.1522 and -0.1449 and -0.1427
  raw reading at čas 10 (time 10), single replicates: 0.5282 and 0.5314 and 0.5326 and 0.5426 and 0.5531 and 0.5454
[1]; sheet IBE 1, time 20, mean
  odečet 0 (reading minus time 0 reading) at čas 20, průměr (mean): -0.2713
[1]; sheet IBE 1, time 20, mean of 9 readings
  raw reading at čas 20 (time 20), průměr (mean): 0.4105
[1]; [6]
  odečet 0 (reading minus time 0 reading) at čas 20, single replicates: -0.2803 and -0.2685 and -0.2607 and -0.2802 and -0.2739 and -0.2684
  raw reading at čas 20 (time 20), single replicates: 0.3971 and 0.4095 and 0.4115 and 0.4146 and 0.424 and 0.4197
[1]; sheet IBE 1, time 30, mean
  odečet 0 (reading minus time 0 reading) at čas 30, průměr (mean): -0.3705
[1]; sheet IBE 1, time 30, mean of 9 readings
  raw reading at čas 30 (time 30), průměr (mean): 0.3114
[1]; [7]
  odečet 0 (reading minus time 0 reading) at čas 30, single replicates: -0.381 and -0.369 and -0.359 and -0.3788 and -0.3711 and -0.366
  raw reading at čas 30 (time 30), single replicates: 0.2963 and 0.3091 and 0.3132 and 0.316 and 0.3269 and 0.322
[1]; sheet IBE 3, 30min, Fe alone = 100%, mean (průměr) of the 9 replicates
  %Fe 30min (ascorbate oxidation, Fe 100%), průměr: 426.7%
[1]; sheet IBE 3, 30min, Fe alone = 100%, single replicates
  %Fe 30min (ascorbate oxidation, Fe 100%): 442% and 427.3% and 421.9% and 434.5% and 414.3% and 409.1%
[1]; sheet IBE 3, time 10 minus time 0, mean (průměr)
  Change of absorbance, odečet 0 (time 0 subtracted), čas 10, průměr: -0.1585
[1]; sheet IBE 3, time 10 minus time 0, single replicates
  Change of absorbance, odečet 0 (time 0 subtracted), čas 10: -0.1642 and -0.1578 and -0.1558 and -0.1617 and -0.1557 and -0.1533
[1]; sheet IBE 3, time 20 minus time 0, mean (průměr)
  Change of absorbance, odečet 0 (time 0 subtracted), čas 20, průměr: -0.2896
[1]; sheet IBE 3, time 20 minus time 0, single replicates
  Change of absorbance, odečet 0 (time 0 subtracted), čas 20: -0.3027 and -0.2894 and -0.2865 and -0.2919 and -0.2818 and -0.2751
[1]; sheet IBE 3, time 30 minus time 0, mean (průměr)
  Change of absorbance, odečet 0 (time 0 subtracted), čas 30, průměr: -0.3943
[1]; sheet IBE 3, time 30 minus time 0, single replicates
  Change of absorbance, odečet 0 (time 0 subtracted), čas 30: -0.4103 and -0.3966 and -0.3916 and -0.3977 and -0.3792 and -0.3744

## CO/C1=C\C(C)=C\[C@@H](C)[C@@H](O)[C@@H](C)C/C(C)=C/C=C/[C@H](OC)[C@@H]([C@@H](C)[C@@H](O)[C@H](C)[C@@]2(O)C[C@@H](O)[C@H](C)[C@@H](C(C)C)O2)OC1=O [Baf]
LC3-II; Fig 7E, Baf alone
  densitometry WB, relative to NT = 1, Average: 452.435
  densitometry WB, relative to NT = 1: 493.767 and 401.641 and 461.896
LC3-II; [8]
  densitometry WB, relative to NT = 1, Average: 120.681
  densitometry WB, relative to NT = 1: 125.194 and 89.4619 and 147.387
